# Data from patent US11435345B2, “Detection and treatment of demyelinating diseases” (MATN SCIENTIFIC LIMITED, priority 2016, dated 2022).
# Entries after “also recorded” stand apart in the source; their conditions may differ. No end group written: not given here.
# Legend:
# [1] = system: antibody that binds to the oligopeptide in serum samples; test: ELISA assay of serum antibody that binds to biotinylated oligopeptides immobilised on streptavidin plates; assay type: binding, human; conditions: pH 7.4, female subjects, FIG. 2
# Description: Six exemplary oligopeptides of the invention (each 17 amino-acids long, with biotinylated N-terminus) were used to prepare ELISA assays for studying antibody levels in patient samples. The oligopeptides were synthesised by K J Ross-Petersen ApS (Copenhagen, Denmark) and provided in lyophilized form. General serum diluent was purchased from Immunochemistry Technologies LLC (Minnesota, USA). Streptavidin coated 96-Well microplates were purchased from Eagle Biosciences (New Hampshire, USA) and the oligopeptides were applied to individual wells of the streptavidin plates as described below.
# Sample preparation: Following obtaining informed consent, a 5 ml venous blood sample was withdrawn from each individual participating in this study. Samples were centrifuged for 10 minutes at 3000 RPM. Serum was then transferred into a clean plastic vial and the remainder was discarded. Serum was then diluted in general serum diluent (200 μl/mL), labelled accordingly and stored at −20° C. […]
# ELISA protocol: Typical ELISA protocol was followed for quantifying antibodies present in serum. […] The plate was shaken for 5 seconds at 250 RPM and absorbance was measured using plate reader at wavelength 450 nm and 630 nm filter. Elisys Uno fully automated ELISA analyser (HUMAN company, Wiesbaden, Germany) was used to read the measurements. […]
# [2] = system: multiple sclerosis patients; conditions: MS patients; cited from earlier work
# C57BL/6 mice [3] = test: Disease induction with antigen and adjuvant in combination with Pertussis toxin; assay type: in vivo, mouse; conditions: for severity of muscle weakness compared between antigens / grade of plaques compared to control animals: mice; for grade of plaques compared to control animals: mid brain section, antigen + adjuvant + pertussis, FIG. 8
# Method: (§1) Male (n=16) and female (n=16) C57BL/6 mice, weighing between 16-18 g, were purchased from Royan institute (Tehran, Iran). MS induction study started when mice reached 6-8 weeks of age. Similar investigations were carried chick and guinea pig (data not shown). All procedures were performed aseptically and under supervision of Gandhi Hospital medical ethics committee (Tehran, Iran). Freund's complete adjuvant and Pertussis toxin purchased from Sigma-Aldrich (Dorset, UK).
# At day 1 and day 2, 250 μg of antigen (oligopeptides of the invention) diluted in 150 μl of saline combined with 150 μl of adjuvant was injected intra-dermally into alcohol wiped back of each mouse. Following the injection of antigens, 400 ng Pertussis toxin diluted in 300 μl distilled water was injected intraperitoneally. Two control groups received either 150 μl distilled water in 150 μl of adjuvant or 400 ng Pertussis toxin diluted in 300 μl distilled water. The animals were kept in standard housing condition with appropriate temperature and humidity as well as adequate supplies of food and fresh water.
# (§2) After scarifying mice by anaesthesia overdose at day 15 of injection, their brain was dissected out and fixed in 10% Formalin for histological analysis. The fixed samples were subsequently cut horizontally and processed to produce 5-micron thin paraffin sections, which then were stained with Haematoxylin and eosin (H&E), Glial fibrillary acidic protein (GFAP), CD-68 and Luxol fast blue (LFB). Various sections of the brain were then analyzed and imaged using a bright-field microscope (Optika B-383PL, Bergamo, Italy). Grade of plaque formation was defined as number of plaques measured in mid brain section as follow: […]
# The effect of injected oligopeptide antigens of the invention on muscular function was tested by measuring animal fall time from inverted cage and ring. These tests follow the format of commonly used functional muscle evaluation tests in mice that use “wire hanging” behavioral tests wherein latency to fall after being suspended from a substrate is quantified to give a measure of muscular function.
# chicks = test: MS induction in chicks with antigens combined with pertussis and adjuvant; assay type: in vivo, chick; conditions: 1 mg antigen per 70 g body weight
# Method: As a preliminary examination of our proposed treatment method, we induced MS in chicks by injecting antigens P, F, E and A (corresponding to SEQ ID NOs: 20, 21, 22 and 23) combined with pertussis and adjuvant. The dosage was 1 mg antigen per 70 g body weight. The main reason we chose this animal was to be able to easily visualize the walking impairment as they are bipedal like humans (compared to quadrupedal rodents). Initial symptoms were seen 12 days after antigen injection.
# C57BL/6 mice [4] = test: Disease induction with antigen and adjuvant without Pertussis toxin; assay type: in vivo, mouse; conditions: for grade of plaque formation: mid brain section, day 15, without Pertussis, FIG. 12
# Method: as §1
# C57BL/6 mice were injected with adjuvant and antigens (oligopeptides of the invention) at day 0 and 5. Control group received the injection of only adjuvant in distilled water.
# as §2
# [5] = fall from inverted cage and ring
Substance,grade of plaques compared to control animals (C57BL/6 mice [3]),balance compared to controls (chicks),time to initial symptoms after antigen injection (chicks),weight compared to controls (chicks),also measured
"RLTLSPEQAHSLILQHL [antigen S, RLTLSPEQAHSLILQHL]",–,–,–,–,differences between healthy female patients (HF) and female patients with MS (FMS) in the levels of antibody that bind to the oligopeptide [1]: significant for each exemplary oligopeptide besides H and S
Glatiramer acetate [Copaxone],–,–,–,–,fewer relapses than patients taking placebo [2]: about 30%
RDSANIYHADSLKGRFT (Oligopeptide motif) [antigen A],significantly higher,lack of balance,12 days,Significant weight loss,severity of muscle weakness compared between antigens (C57BL/6 mice [3]; [5]): less than those injected with oligopeptide antigen P; also recorded: considerably less effect than oligopeptide antigens E and F
RVPGCAHHADSLYTYPV (Oligopeptide motif) [antigen F],significantly higher,lack of balance,12 days,Significant weight loss,"grade of plaque formation (C57BL/6 mice [4]; male mice): 7 (18-21); induction of MS in males (C57BL/6 mice [4]; males): major inducer of MS in males; muscle weakness in male mice (C57BL/6 mice [3]; male mice, fall from inverted cage and ring): most pronounced muscle weakness"
"MPRTQENAHSLERCWL [antigen H, MPRTQENAHSLERCWL]",–,–,–,–,differences between healthy female patients (HF) and female patients with MS (FMS) in the levels of antibody that bind to the oligopeptide [1]: significant for each exemplary oligopeptide besides H and S
RHSDEHHHDDSLPHPQQ (Oligopeptide motif) [antigen E],significantly higher,lack of balance,12 days,Significant weight loss,"grade of plaque formation (C57BL/6 mice [4]; female mice): 9 (24-27); induction of MS in females (C57BL/6 mice [4]; females): major inducer of MS in females; muscle weakness in female mice (C57BL/6 mice [3]; female mice, fall from inverted cage and ring): most pronounced muscle weakness"
RGSRGQHQAHSLERVCH (Oligopeptide motif) [antigen P],–,lack of balance,12 days,Significant weight loss,severity of muscle weakness compared between antigens (C57BL/6 mice [3]; [5]): considerably less effect than oligopeptide antigens E and F
